According to the supplement of paper PMC10307832:

Assays:
Assay in all cases: relative viability (nuclei count vs DMSO), 5 days (fraction); higher = more cells survive
Vemurafenib + Phenformin = compound: CCCS(=O)(=O)Nc1ccc(F)c(C(=O)c2c[nH]c3ncc(-c4ccc(Cl)cc4)cc23)c1F [Vemurafenib] + N=C(N)NC(=N)NCCc1ccccc1 [Phenformin] (partner 250 µM)
How it was run: (§1)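 Relative viability was taken as the ratio of nuclei in treated wells to nuclei in vehicle wells. Lung cancer cell lines in 1536-well plates received compounds by pin tool one day after seeding, either one drug alone or a fixed anchor-drug dose plus five library-drug doses (not always all listed) in √10 steps. Nuclei were counted on 4× images after 5 days of treatment, and values are medians of duplicate plates.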

OSI-027 + Tozasertib = compound: COc1cccc2cc(-c3nc([C@H]4CC[C@H](C(=O)O)CC4)n4ncnc(N)c34)[nH]c12 [OSI-027] + Cc1cc(Nc2cc(N3CCN(C)CC3)nc(Sc3ccc(NC(=O)C4CC4)cc3)n2)n[nH]1 [Tozasertib] (partner 0.1 µM)
How it was run: as §1

OSI-027 + Phenformin = compound: COc1cccc2cc(-c3nc([C@H]4CC[C@H](C(=O)O)CC4)n4ncnc(N)c34)[nH]c12 [OSI-027] + N=C(N)NC(=N)NCCc1ccccc1 [Phenformin] (partner 250 µM)
How it was run: as §1

Alpelisib + Olaparib = compound: Cc1nc(NC(=O)N2CCC[C@H]2C(N)=O)sc1-c1ccnc(C(C)(C)C(F)(F)F)c1 [Alpelisib] + O=C(c1cc(Cc2n[nH]c(=O)c3ccccc23)ccc1F)N1CCN(C(=O)C2CC2)CC1 [Olaparib] (partner 8 µM)
How it was run: as §1

| Cell Line | relative viability (Vemurafenib + Phenformin; first compound 0.03162 µM) | relative viability (Vemurafenib + Phenformin; first compound 0.3162 µM) | relative viability (Vemurafenib + Phenformin; first compound 1 µM) | relative viability (OSI-027 + Tozasertib; first compound 0.01 µM) | relative viability (OSI-027 + Tozasertib; first compound 0.03162 µM) | relative viability (OSI-027 + Tozasertib; first compound 0.1 µM) | relative viability (OSI-027 + Tozasertib; first compound 0.3162 µM) | relative viability (OSI-027 + Tozasertib; first compound 1 µM) | relative viability (OSI-027 + Phenformin; first compound 0.01 µM) | relative viability (OSI-027 + Phenformin; first compound 0.03162 µM) | relative viability (OSI-027 + Phenformin; first compound 0.1 µM) | relative viability (OSI-027 + Phenformin; first compound 0.3162 µM) | relative viability (OSI-027 + Phenformin; first compound 1 µM) | relative viability (Alpelisib + Olaparib; first compound 0.04 µM) | relative viability (Alpelisib + Olaparib; first compound 0.1265 µM) | relative viability (Alpelisib + Olaparib; first compound 0.4 µM) | relative viability (Alpelisib + Olaparib; first compound 1.265 µM) | relative viability (Alpelisib + Olaparib; first compound 4 µM) | relative viability (Vemurafenib + Phenformin; first compound 0.1 µM) |
| --- | --- | --- | --- | --- | --- | --- | --- | --- | --- | --- | --- | --- | --- | --- | --- | --- | --- | --- | --- |
| NCI-H1793 | 0.338 | 0.333 | 0.338 | 0.284 | 0.313 | 0.28 | 0.239 | 0.209 | 0.365 | 0.367 | 0.306 | 0.297 | 0.184 | 0.805 | 0.714 | 0.685 | 0.495 | 0.367 |  |
| NCI-H1915 | 0.354 | 0.255 | 0.332 | 0.488 | 0.445 | 0.525 | 0.475 | 0.404 | 0.38 | 0.38 | 0.359 | 0.381 | 0.32 | 0.264 | 0.288 | 0.303 | 0.236 | 0.235 | 0.348 |
| NCI-H1944 | 0.206 | 0.122 | 0.191 | 0.239 | 0.251 | 0.22 | 0.221 | 0.175 | 0.2 | 0.222 | 0.19 | 0.172 | 0.137 | 0.41 | 0.431 | 0.427 | 0.341 | 0.337 | 0.18 |
| NCI-H1975 | 0.422 | 0.289 | 0.466 | 1 | 0.778 | 0.746 | 0.66 | 0.478 | 0.435 | 0.412 | 0.379 | 0.363 | 0.298 | 0.689 | 0.859 | 0.838 | 0.563 | 0.625 | 0.406 |
| NCI-H1993 | 0.532 | 0.595 | 0.468 | 0.574 | 0.56 | 0.546 | 0.49 | 0.456 | 0.529 | 0.472 | 0.492 | 0.546 | 0.547 | 1.01 | 0.868 | 1.13 | 0.585 | 0.735 |  |
| NCI-H2009 | 0.458 | 0.343 | 0.361 | 0.759 | 0.621 | 0.717 | 0.755 | 0.444 | 0.477 | 0.48 | 0.487 | 0.425 | 0.277 | 0.756 | 0.659 | 0.674 | 0.647 | 0.599 | 0.418 |
| NCI-H2023 | 0.376 | 0.378 | 0.354 | 0.424 | 0.319 | 0.352 | 0.348 | 0.244 | 0.452 | 0.367 | 0.397 | 0.301 | 0.213 | 0.436 | 0.432 | 0.479 | 0.383 | 0.263 | 0.381 |
| NCI-H2085 | 0.65 | 0.683 | 0.676 | 0.785 | 0.654 | 0.741 | 0.784 | 0.568 | 0.727 | 0.701 | 0.704 | 0.623 | 0.503 | 0.754 | 0.75 | 0.794 | 0.733 | 0.711 | 0.57 |
| NCI-H2087 | 0.438 |  | 0.467 | 0.228 | 0.254 | 0.257 | 0.234 | 0.188 | 0.495 | 0.492 | 0.424 | 0.398 | 0.271 | 0.557 | 0.514 | 0.653 | 0.483 | 0.444 | 0.402 |
| NCI-H2126 | 0.513 |  | 0.533 | 0.811 | 0.848 | 0.725 | 0.745 | 0.538 | 0.527 | 0.555 | 0.437 | 0.405 | 0.404 | 0.887 | 0.864 | 0.871 | 0.76 | 0.659 | 0.485 |
| NCI-H2170 | 0.396 | 0.376 | 0.454 | 0.71 | 0.658 | 0.603 | 0.733 | 0.435 | 0.429 | 0.401 | 0.431 | 0.436 | 0.275 | 0.519 | 0.586 | 0.596 | 0.481 | 0.466 | 0.354 |
| NCI-H2228 | 0.376 | 0.302 | 0.267 | 0.246 | 0.242 | 0.242 | 0.207 | 0.16 | 0.305 | 0.324 | 0.307 | 0.251 | 0.198 | 0.889 | 0.587 | 0.621 | 0.341 | 0.326 | 0.298 |
| NCI-H2342 | 0.443 | 0.622 | 0.737 | 0.445 | 0.509 | 0.492 | 0.449 | 0.421 | 0.524 | 0.533 | 0.564 | 0.481 | 0.445 | 0.448 | 0.429 | 0.405 | 0.367 | 0.266 | 0.574 |
| NCI-H2347 | 0.33 | 0.463 | 0.234 | 0.362 | 0.467 | 0.58 | 0.564 | 0.317 | 0.442 | 0.371 | 0.293 | 0.262 | 0.296 | 0.632 | 0.61 | 0.89 | 0.481 | 0.515 | 0.38 |
| NCI-H2405 | 0.382 |  | 0.368 | 0.754 | 0.715 | 0.76 | 0.79 | 0.467 | 0.39 | 0.355 | 0.338 | 0.327 | 0.27 | 0.905 | 0.864 | 0.898 | 0.657 | 0.71 | 0.374 |
| NCI-H3122 | 0.357 | 0.292 | 0.394 | 0.542 | 0.38 | 0.385 | 0.434 | 0.287 | 0.409 | 0.41 | 0.454 | 0.443 | 0.288 | 0.644 | 0.657 | 0.668 | 0.647 | 0.508 | 0.372 |
| PC-3 [JPC-3] | 0.482 | 0.498 | 0.513 | 1.03 | 0.808 | 0.844 | 0.841 | 0.351 | 0.482 | 0.465 | 0.49 | 0.449 | 0.433 | 1.23 | 1.1 | 1.24 | 0.967 | 1.02 |  |
